The values that follow come from US6673937B2, “Syntheses and methods of use of new antimitotic agents” (The University of Pittsburgh, priority 2000, dated 2004).

One test concerns bovine brain tubulin. As to the kind of experiment: Inhibition of [3H]colchicine binding. To be noted: 5 μM compound; Mean ± SEM, N = 9. As for the experimental part:
Using methods described previously (Verdier-Pinard P, Lai J-Y, Yoo H-D, Yu J, Marquez B, Nagle DG, Nambu M, White JD, Falck JR, Gerwick WH, Day BW and Hamel E (1998) Structure-activity analysis of the interaction of curacin A, the potent colchicine site antimitotic agent, with tubulin and effects of analogs on the growth of MCF-7 breast cancer cells. Mol Phannacol 53:62-76.). 5,μM [^3H]colchicine was incubated with either 5% DMSO vehicle or compound (5 or 50 μM) at 37° C. for 15 min with 1 μM tubulin in the presence of 1 M monosodium glutamate, 0.1 M glucose-1-phosphate, 1 mM MgCl2, 1 mM GTP and 0.5 mg/ml bovine serum albumin. The solutions were filtered through two stacks of DEAE-cellulose filters and the radioactivity in the filtrate was determined by liquid scintillation spectrometry. Each series of determinations included positive controls of 5 and 50 μM curacin A. The inventors found no evidence that SR-7 could bind to the colchicine site of tubulin. […] The inventors propose that SR-7 may act at another site such as the previously characterized vinca alkaloid site.

The test system of test [1] is 1 A9, 1 A9/PTX10 and 1 A9/PTX22 cells. The test can be described thus: Growth inhibition of paclitaxel-sensitive and -resistant 1A9 cells. The class given is cell-based, human. As for the experimental part: Two compounds, 24 referred to herein as SR-4 and 27 referred to herein as SR-7, were examined in greater detail as to their effects on biological activity. The proliferation of MCF-7, MDA-MB-231 and SV40 transformed mouse embryonic fibroblasts was measured by a previously described colorimetric assay (Wipf P, Jung J-K, Rodriguez S, Lazo JS Synthesis and biological evaluation of Deoxypreussomerin A and Palmarumycin CP 1 and related naphthoquinone spiroketals. Tetrahedron 57:283-296, 2001 and Vogt A, Rice RL, Settineri CE, Yokokawa F, Yokokawa S, Wipf P and Lazo JS (1998) Disruption of insulin-like growth factor-I signaling and down-regulation of Cdc2 by SC-ααδ9, a novel small molecule antisignaling agent identified in a targeted array library. J Pharmacol Exptl Therap 287:806-813.). Briefly, the inventors seeded 4,000-6,000 cells per well in microtiter plates. […] Plates were incubated for 3 hours in the dark and total cell number was determined by spectrophotometrically at 540 nm as previously described (Vogt A, Rice RL, Settineri CE, Yokokawa F, Yokokawa S, Wipf P and Lazo JS (1998) Disruption of insulin-like growth factor-1 signaling and down-regulation of Cdc2 by SC-ααδ9, a novel small molecule antisignaling agent identified in a targeted array library. J Pharmacol Exptl Therap 287:806-813.). […]

For another test, the target named is T1, Cdk1 (Homo sapiens, UniProt P06493).
T1 construct: Lysates from asynchronous MCF-7 cells were immunoprecipitated with anti Cdk1 antibody coupled to agarose; endogenous in cells; host or cells: MCF-7 human breast cancer cells (immunoprecipitate)
T1 sequence (P06493 whole entry): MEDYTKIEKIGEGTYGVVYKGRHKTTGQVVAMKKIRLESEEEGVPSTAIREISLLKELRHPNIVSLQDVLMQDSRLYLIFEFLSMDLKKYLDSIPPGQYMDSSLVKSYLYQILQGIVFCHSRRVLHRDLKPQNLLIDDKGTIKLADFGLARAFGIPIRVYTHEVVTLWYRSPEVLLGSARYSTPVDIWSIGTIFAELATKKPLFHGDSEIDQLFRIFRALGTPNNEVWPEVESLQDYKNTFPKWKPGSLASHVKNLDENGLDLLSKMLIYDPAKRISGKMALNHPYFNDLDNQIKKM
T1 sequence (P14635 whole entry partner): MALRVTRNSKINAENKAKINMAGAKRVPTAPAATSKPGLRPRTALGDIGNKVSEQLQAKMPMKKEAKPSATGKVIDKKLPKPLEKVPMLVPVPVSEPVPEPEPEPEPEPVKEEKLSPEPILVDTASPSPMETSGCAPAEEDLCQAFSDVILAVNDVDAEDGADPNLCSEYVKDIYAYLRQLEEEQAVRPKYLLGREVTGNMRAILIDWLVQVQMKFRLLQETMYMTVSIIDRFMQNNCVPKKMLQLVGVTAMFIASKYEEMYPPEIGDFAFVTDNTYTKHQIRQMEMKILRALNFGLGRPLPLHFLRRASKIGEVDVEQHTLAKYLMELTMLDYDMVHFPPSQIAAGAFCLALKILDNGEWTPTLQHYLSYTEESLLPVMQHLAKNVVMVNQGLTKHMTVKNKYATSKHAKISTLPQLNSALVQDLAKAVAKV
The test can be described thus: Cdk1 kinase activity assay (histone H1 phosphorylation). The class given is biochemical. The conditions noted are these: immunoprecipitate from MCF-7 cells, 20 min. As to the method:
tsFT210 cells were harvested using the same procedure for cell synchronizing and drug exposure as described above for the G2/M flow cytometric analysis. The protein lysates were analyzed by Western blotting for Cdk1 as described previously (Tamura K, Southwick EC, Kerns J, Rosi K, Carr BI, Wilcox C and Lazo JS (2000) Cdc25 inhibition and cell cycle arrest by a synthetic thioalkyl vitamin K analogue. Cancer Res 60:1317-1325.). The inventors used Cdk1 isolated from human MCF-7 cells to assay for in vitro inhibition of enzyme activity because of available antibodies and convenience. Asynchronous cells grown at 37° C. in 5% CO2 in DMEM containing 10% fetal bovine serum were treated with lysis buffer and harvested as previously described (Vogt A, Wang AS, Johnson CS, Fabisiak JP, Wipf P and Lazo JS (2000) In vivo antitumor activity and induction of insulin-like growth factor-1 resistant apoptosis by SC-ααδ9. J Pharmacol Exptl Therap 292:530-537.). […] Histone H1 was separated from other proteins by SDS-PAGE and analyzed for incorporation of radioactive phosphate with a Molecular Dynamics STORM 860 Phospholmager (Sunnyvale, CA). […]

As for `O=C1C=CC2(Oc3cccc4cccc(c34)O2)c2cccc(OCc3ccco3)c21` [SR-7, 8-(furan-2-ylmethoxy)-1-oxo-1,4-dihydronaphthalene-4-spiro-2′-naphto [1″,8″-de][1′,3′] dioxin], the “Percent inhibition of [3H]colchicine binding” value with bovine brain tubulin worked out at 1.5 ± 0.5%. The “inhibition of paclitaxel-sensitive and -resistant cell growth” value in test [1] is recorded as “almost equal inhibition”. Further, the “direct inhibition of Cdk1 kinase activity” value on Cdk1 is “not directly inhibited”.
